# From patent EP1077981B1, “NOVEL CEPHALOSPORIN COMPOUNDS, PROCESSES FOR PREPARATION THEREOF AND ANTIMICROBIAL COMPOSITIONS CONTAINING THE SAME” (LG CHEMICAL LIMITED, priority 1998, dated 1999)
# Read-outs that look alike come from different tables or passages of the source.
# Tests used:
# [1] = test system: Enterobacter cloacae IND+VE 1194E; test: MIC against standard strains (agar dilution); format: cell-based; details: Enterobacter cloacae IND+VE 1194E; Mueller-Hinton agar, 20 hours at 37°C; read-out: MIC
# Description: (§1) Test example 1: Measurement of Minimum Inhibitory Concentration (MIC)
# (§2) Specifically, test compounds were diluted by 2-fold dilution method and dispersed in Mueller-Hinton agar medium and then, 2µℓ of test strains were inoculated at a concentration of 10^7 cfu(colony forming unit)/mℓ on the medium and incubated for 20 hours at 37°C.
# [2] = test system: Enterococcus faecalis 29212; test: MIC against standard strains (agar dilution); format: cell-based; details: Enterococcus faecalis 29212; Mueller-Hinton agar, 20 hours at 37°C; read-out: MIC
# Description: as §1, §2
# Escherichia coli 10536 = test: MIC against standard strains (agar dilution); format: cell-based; details: Escherichia coli 10536; Mueller-Hinton agar, 20 hours at 37°C; read-out: MIC
# Description: as §1, §2
# Escherichia coli 3190Y = test: MIC against standard strains (agar dilution); format: cell-based; details: Escherichia coli, 3190Y, 20 h
# Description: as §1, §2
# Escherichia coli 851E = test: MIC against standard strains (agar dilution); format: cell-based; details: Escherichia coli, 851E, 20 h
# Description: as §1, §2
# [3] = test system: Escherichia coli TEM1 1193E; test: MIC against standard strains (agar dilution); format: cell-based; details: TEM11193E, 20 h
# Description: as §1, §2
# [4] = test system: Escherichia coli TEM3 3455E; test: MIC against standard strains (agar dilution); format: cell-based; details: TEM33455E, 20 h
# Description: as §1, §2
# [5] = test system: Escherichia coli TEM9 2639E; test: MIC against standard strains (agar dilution); format: cell-based; details: TEM92639E; Escherichia coli TEM9 2639E; Mueller-Hinton agar, 20 hours at 37°C; read-out: MIC
# Description: as §1, §2
# [6] = test system: Klebsiella aerogenes SHV-1 1976E; test: MIC against standard strains (agar dilution); format: cell-based; details: Klebsiella aerogenes, 20 h
# Description: as §1, §2
# [7] = test system: Klebsiella pneumoniae 2011E; test: MIC against standard strains (agar dilution); format: cell-based; details: Klebsiella pneumoniae 2011E; Mueller-Hinton agar, 20 hours at 37°C; read-out: MIC
# Description: as §1, §2
# [8] = test system: Morganella morganii 1375E; test: MIC against standard strains (agar dilution); format: cell-based; details: Morganella morganii 1375E; Mueller-Hinton agar, 20 hours at 37°C; read-out: MIC
# Description: as §1, §2
# Proteus vulgaris 6059 = test: MIC against standard strains (agar dilution); format: cell-based; details: Proteus vulgaris 6059; Mueller-Hinton agar, 20 hours at 37°C; read-out: MIC
# Description: as §1, §2
# [9] = test system: Pseudomonas aeruginosa 1912E; test: MIC against standard strains (agar dilution); format: cell-based; details: Pseudomonas aeruginosa 1912E; Mueller-Hinton agar, 20 hours at 37°C; read-out: MIC
# Description: as §1, §2
# [10] = test system: Pseudomonas aeruginosa 6065Y; test: MIC against standard strains (agar dilution); format: cell-based; details: Pseudomonas aeruginosa 6065Y; Mueller-Hinton agar, 20 hours at 37°C; read-out: MIC
# Description: as §1, §2
# [11] = test system: Salmonella typhimurium 14028; test: MIC against standard strains (agar dilution); format: cell-based; details: Salmonella enterica; Salmonella typhimurium 14028; Mueller-Hinton agar, 20 hours at 37°C; read-out: MIC
# Description: as §1, §2
# [12] = test system: Serratia marcescens 1826E; test: MIC against standard strains (agar dilution); format: cell-based; details: Serratia marcescens 1826E; Mueller-Hinton agar, 20 hours at 37°C; read-out: MIC
# Description: as §1, §2
# Staphylococcus aureus 77 = test: MIC against standard strains (agar dilution); format: cell-based; details: Staphylococcus aureus 77; Mueller-Hinton agar, 20 hours at 37°C; read-out: MIC
# Description: as §1, §2
# [13] = test system: Staphylococcus aureus giorgio; test: MIC against standard strains (agar dilution); format: cell-based; details: Staphylococcus aureus giorgio; Mueller-Hinton agar, 20 hours at 37°C; read-out: MIC
# Description: as §1, §2
# [14] = Pharmacokinetic experiment (blood concentration by HPLC); format: in vivo, mice; details: male, mouse, blood, 20 mg/kg
# Description: Test example 2: Pharmacokinetic experiment
# Male mice, each of which has a body weight of […] were used in the present pharmacokinetic experiment. Test compounds were formulated into 1% of solution and then, the solution was administered by oral route and by injection with a dose of 20mg/kg, respectively. At the fixed interval of time after administration, blood was gathered from the mice. Concentrations of test compounds in blood were measured by HPLC quantitative analysis and based on the results, pharmacokinetic parameters were calculated.
# [15] = intravenous, Injection, read-out: average conc.
# [16] = intravenous, Injection, read-out: blood concentration, mouse-1
# [17] = intravenous, Injection, read-out: blood concentration, mouse-2
# [18] = other: injection, Injection, read-out: average conc.
# [19] = other: injection, Injection, read-out: blood concentration, mouse-1
# [20] = other: injection, Injection, read-out: blood concentration, mouse-2
# [21] = po, Oral administration, read-out: average conc.
# [22] = po, Oral administration, read-out: blood concentration, mouse-1
# [23] = po, Oral administration, read-out: blood concentration, mouse-2
# [24] = po, Oral administration, read-out: blood concentration, mouse-3
compound,measurement,setting,value
"CO/N=C(\C(=O)NC1C(=O)N2C(C(=O)O)=C(Sc3cc(N)nc(N)n3)CSC12)c1csc(N)n1 (stereo not drawn) [Compound No. 25, 7-[(Z)-2-(2-amino-thiazol-4-yl)-2-methoxyimino-acetylamino]-3-(2,6-diamino-pyrimidin-4-ylsulfanyl)-8-oxo-5-thia-1-azabicyclo[4,2,0]oct-2-ene-2-carboxylic acid]",MIC,[1],> 64 µg/mL
same,MIC,[2],> 64 µg/mL
same,MIC,Escherichia coli 10536,0.063 µg/mL
same,MIC,Escherichia coli 3190Y,0.031 µg/mL
same,MIC,Escherichia coli 851E,0.063 µg/mL
same,MIC,[3],0.25 µg/mL
same,MIC,[4],8 µg/mL
same,MIC,[5],32 µg/mL
same,MIC,[6],0.25 µg/mL
same,MIC,[7],0.5 µg/mL
same,MIC,[8],0.13 µg/mL
same,MIC,Proteus vulgaris 6059,0.016 µg/mL
same,MIC,[9],16 µg/mL
same,MIC,[10],64 µg/mL
same,MIC,[11],0.25 µg/mL
same,MIC,[12],2 µg/mL
same,MIC,Staphylococcus aureus 77,4 µg/mL
same,MIC,[13],0.5 µg/mL
same,concentration at 1 min,[14]; [15],96400 ng/mL
same,concentration at 1 min,[14]; [16],120000 ng/mL
same,concentration at 1 min,[14]; [17],72800 ng/mL
same,concentration at 5 min,[14]; [15],41200 ng/mL
same,concentration at 5 min,[14]; [16],51700 ng/mL
same,concentration at 5 min,[14]; [17],30700 ng/mL
same,concentration at 10 min,[14]; [15],29100 ng/mL
same,concentration at 10 min,[14]; [16],37700 ng/mL
same,concentration at 10 min,[14]; [17],20400 ng/mL
same,concentration at 120 min,[14]; [15],1800 ng/mL
same,concentration at 120 min,[14]; [16],2200 ng/mL
same,concentration at 120 min,[14]; [17],1300 ng/mL
same,concentration at 180 min,[14]; [15],800 ng/mL
same,concentration at 180 min,[14]; [16],1100 ng/mL
same,concentration at 180 min,[14]; [17],600 ng/mL
same,concentration at 240 min,[14]; [15],400 ng/mL
same,concentration at 240 min,[14]; [16],500 ng/mL
same,concentration at 240 min,[14]; [17],300 ng/mL
same,concentration at 20 min,[14]; [18],17100 ng/mL
same,concentration at 20 min,[14]; [19],21600 ng/mL
same,concentration at 20 min,[14]; [20],12700 ng/mL
same,concentration at 40 min,[14]; [18],9800 ng/mL
same,concentration at 40 min,[14]; [19],12200 ng/mL
same,concentration at 40 min,[14]; [20],7300 ng/mL
same,concentration at 60 min,[14]; [18],6100 ng/mL
same,concentration at 60 min,[14]; [19],7600 ng/mL
same,concentration at 60 min,[14]; [20],4600 ng/mL
same,concentration at 90 min,[14]; [18],3300 ng/mL
same,concentration at 90 min,[14]; [19],4300 ng/mL
same,concentration at 90 min,[14]; [20],2400 ng/mL
same,concentration at 5 min,[14]; [21],90 ng/mL
same,concentration at 5 min,[14]; [22],70 ng/mL
same,concentration at 5 min,[14]; [23],130 ng/mL
same,concentration at 5 min,[14]; [24],60 ng/mL
same,concentration at 10 min,[14]; [21],200 ng/mL
same,concentration at 10 min,[14]; [22],160 ng/mL
same,concentration at 10 min,[14]; [23],270 ng/mL
same,concentration at 10 min,[14]; [24],140 ng/mL
same,concentration at 20 min,[14]; [21],490 ng/mL
same,concentration at 20 min,[14]; [22],280 ng/mL
same,concentration at 20 min,[14]; [23],720 ng/mL
same,concentration at 20 min,[14]; [24],270 ng/mL
same,concentration at 40 min,[14]; [21],470 ng/mL
same,concentration at 40 min,[14]; [22],270 ng/mL
same,concentration at 40 min,[14]; [23],590 ng/mL
same,concentration at 40 min,[14]; [24],350 ng/mL
same,concentration at 60 min,[14]; [21],440 ng/mL
same,concentration at 60 min,[14]; [22],160 ng/mL
same,concentration at 60 min,[14]; [23],610 ng/mL
same,concentration at 60 min,[14]; [24],260 ng/mL
same,concentration at 90 min,[14]; [21],570 ng/mL
same,concentration at 90 min,[14]; [22],70 ng/mL
same,concentration at 90 min,[14]; [23],840 ng/mL
same,concentration at 90 min,[14]; [24],290 ng/mL
same,concentration at 120 min,[14]; [21],360 ng/mL
same,concentration at 120 min,[14]; [22],60 ng/mL
same,concentration at 120 min,[14]; [23],480 ng/mL
same,concentration at 120 min,[14]; [24],240 ng/mL
same,concentration at 180 min,[14]; [21],410 ng/mL
same,concentration at 180 min,[14]; [22],60 ng/mL
same,concentration at 180 min,[14]; [23],590 ng/mL
same,concentration at 180 min,[14]; [24],240 ng/mL
same,concentration at 240 min,[14]; [21],230 ng/mL
same,concentration at 240 min,[14]; [22],60 ng/mL
same,concentration at 240 min,[14]; [23],220 ng/mL
same,concentration at 240 min,[14]; [24],230 ng/mL
